Tests used:
glutaminase = conditions: cited from earlier work
[1] = Liver homogenate stability (compound disappearance by LC-MS/MS); format: in vitro ADME; conditions: 20 μm, 37° C.
Method: Liver or EL4 lymphoma tumor tissues were washed and diluted 10-fold in 0.1 M potassium phosphate buffer and homogenized using a probe sonicator. To evaluate the stability of the analogs 1 mL aliquots were made of each matrix and the analogs were spiked to a final assay concentration of 20 μm. Spiked samples were incubated in an orbital shaker at 37° C. for 1 h, following which reactions were quenched in triplicate with three volumes of acetonitrile containing the internal standard (IS; losartan: 0.5 μm). The samples were vortex-mixed for 30 s and centrifuged at 10 000 g for 10 min at 4° C. Fifty microliters of the supernatant was diluted with 50 μL of water and transferred to a 250 μL polypropylene vial sealed with a Teflon cap. Compound disappearance was monitored over time using liquid chromatography tandem mass spectrometry (LC-MS/MS).

[2] = Stability of the prepared product on storage; format: physicochemical; conditions: should be stored at −80° C.
Method: Piperidine (1.00 mL, 10.3 mmol, 20 equiv.) was added and the reaction mixture was stirred at rt for 2 h. The solvent was evaporated and the residue was chromatographed on silica gel (CHCl3/MeOH 1:1+2% Et3N) to afford the desired product I (165 mg, 73%) as a yellowish oil. The prepared product I is very unstable and should be stored at −80° C.

Compound | Liver homogenate stability (% remaining at 1 h incubation) [1] [%] | Inhibition of glutamine-utilizing enzymes including glutaminase (glutaminase) | Stability of prepared product [2]
[N-]=[N+]=CC(=O)CC[C@H](N)C(=O)O [DON, 6-diazo-5-oxo-L-norleucine] | – | low micromolar levels | –
CC(C)OC(=O)[C@H](CCC(=O)C=[N+]=[N-])NP(=O)(OCCCCN)Oc1ccccc1 (stereo partly drawn) [I, Isopropyl (2S)-2-(((4-aminobutoxy)(phenoxy)phosphoryl)amino)-6-diazo-5-oxohexanoate] | 32 | – | very unstable
CC(C)C[C@H](NC(=O)COCCN)C(=O)N[C@@H](CCC(=O)C=[N+]=[N-])C(=O)OC(C)C [V, Isopropyl (S)-2-((S)-2-(2-(2-aminoethoxy)acetamido)-4-methylpentanamido)-6-diazo-5-oxohexanoate] | 17 | – | –
CC(C)C[C@H](NC(=O)OCC1c2ccccc2-c2ccccc21)C(=O)N[C@@H](CCC(=O)C=[N+]=[N-])C(=O)N[C@@H](Cc1ccccc1)C(=O)NCCOCCOCCOCCOCCC(=O)O [VI, (5S,8S,11S)-11-Benzyl-8-(4-diazo-3-oxobutyl)-1-(9H-fluoren-9-yl)-5-isobutyl-3,6,9,12-tetraoxo-2,16,19,22,25-pentaoxa-4,7,10,13-tetraazaoctacosane-28-oic acid] | 12 | – | –
CC(C)C[C@H](NC(=O)OCC1c2ccccc2-c2ccccc21)C(=O)N[C@@H](CCC(=O)C=[N+]=[N-])C(=O)N[C@@H](Cc1ccccc1)C(=O)NCCOCCOCCOCCC(=O)O [VII, (5S,8S,11S)-11-benzyl-8-(4-diazo-3-oxobutyl)-1-(9H-fluoren-9-yl)-5-isobutyl-3,6,9,12-tetraoxo-2,16,19,22-tetraoxa-4,7,10,13-tetraazapentacosan-25-oic acid] | 0 | – | –

More lines, main results first:

Liver homogenate stability (% remaining at 1 h incubation) [1] [%] | Compound | Inhibition of glutamine-utilizing enzymes including glutaminase (glutaminase) | Stability of prepared product [2]
94 | CC(C)C[C@H](NC(=O)COCCN)C(=O)N[C@@H](CCC(=O)C=[N+]=[N-])C(=O)OC(C)(C)C [II, t-Butyl (S)-2-((S)-2-(2-(2-aminoethoxy)acetamido)-4-methylpentanamido)-6-diazo-5-oxohexanoate] | – | –
79 | CC(C)C[C@H](NC(=O)CCOCCOCCN)C(=O)N[C@@H](CCC(=O)C=[N+]=[N-])C(=O)OC(C)(C)C [III, t-Butyl (2S,5S)-15-amino-2-(4-diazo-3-oxobutyl)-5-isobutyl-4,7-dioxo-10,13-dioxa-3,6-diazapentadecanoate] | – | –
0 | CC(C)C[C@H](NC(=O)CCOCCOCCN)C(=O)N[C@@H](CCC(=O)C=[N+]=[N-])C(=O)OC(C)C [IV, Isopropyl (2S,5S)-15-amino-2-(4-diazo-3-oxobutyl)-5-isobutyl-4,7-dioxo-10,13-dioxa-3,6-diazapentadecanoate] | – | –

Reference: US20240398962A1, “DENDRIMER-GLUTAMINE ANTAGONIST CONJUGATES AND METHODS OF USE THEREOF” (The Johns Hopkins University, priority 2021, published 2024)
